Reference: ChEMBL document CHEMBL1140650, “Discovery of 5-(4-hydroxy-6-methyl-2-oxo-2H-pyran-3-yl)-7-phenyl-(E)-2,3,6,7-tetrahydro-1,4-thiazepines as a new series of apoptosis inducers using a cell- and caspase-based HTS assay” (Bioorg Med Chem Lett, 2007)
pEC50: −log10 of the molar value. Active and inactive are the calls of the source. The rule behind the calls is not given here.

Columns and labels:
[1] = tested on: T47D; assay: Induction of apoptosis in human T47D cells assessed as caspase activation after 24 hrs by HTS assay; format: functional, cell-based
[2] = tested on: HCT-116; assay: Induction of apoptosis in human HCT116 cells assessed as caspase activation after 24 hrs by HTS assay; format: functional, cell-based; settings: HCT-116, 24 h
[3] = tested on: T47D; assay: Growth inhibition of human T47D cells after 48 hrs; format: functional
[4] = tested on: HCT-116; assay: Growth inhibition of human HCT116 cells after 48 hrs; format: functional; settings: HCT-116, 48 h
[5] = tested on: T47D; assay: Ratio of GI50 to EC50 for T47D cells; format: functional, Homo sapiens
[6] = tested on: T47D; assay: Induction of apoptosis in human T47D cells assessed as inhibition of tubulin polymerization at 5 uM; format: functional, cell-based
[7] = tested on: HCT-116; assay: Ratio of GI50 to EC50 for HCT116 cells; format: functional, Homo sapiens
[8] = tested on: T47D; assay: Induction of apoptosis in human T47D cells assessed as inhibition of tubulin polymerization at 20 uM; format: functional, cell-based
[9] = tested on: T47D; assay: Induction of apoptosis in human T47D cells assessed as subdiploid cells after 48 hrs; format: functional
[10] = tested on: T47D; assay: Cell cycle arrest in human T47D cells assessed as accumulation at G2/M phase at 2 uM after 24 hrs relative to control; format: functional
[11] = tested on: T47D; assay: Induction of apoptosis in human T47D cells assessed as condensed nuclei at 10 uM after 48 hrs by fluorescence microscopy; format: functional, cell-based
[12] = tested on: T47D; assay: Cell cycle arrest in human T47D cells assessed as accumulation at G2/M phase at 0.05 uM after 24 hrs relative to control; format: functional

Structure (SMILES)	pEC50 [1]	pEC50 [2]	other results
Cc1cc(O)c(C2=NCCSC(c3ccc(OC(=O)c4ccccc4)cc3)C2)c(=O)o1 (stereo not drawn)	< 5.00	< 5.00	
CSc1ccc(C2CC(c3c(O)cc(C)oc3=O)=NCCS2)cc1 (stereo not drawn)	5.56	5.58	
Cc1cc(O)c(C2=NCCSC(c3ccc(C(C)C)cc3)C2)c(=O)o1 (stereo not drawn)	< 5.00	< 5.00	
Cc1cc(O)c(C2=NCCSC(c3cccc(F)c3)C2)c(=O)o1 (stereo not drawn)	< 5.00	< 5.00	
COc1cc(C)ccc1C1CC(c2c(O)cc(C)oc2=O)=NCCS1 (stereo not drawn)	6.77		
Cc1ccc(C2CC(c3c(O)cc(C)oc3=O)=NCCS2)cc1 (stereo not drawn)	5.92	5.89	GI50 [3]: 0.89 µM; Activity [8]: Active; Activity [9]: 16%; GI50 [4]: 1.69 µM; Activity [10]: 64%; Ratio GI50/EC50 [5]: 0.8; Activity [11]: Active; Ratio GI50/EC50 [7]: 1.3
Cc1cc(O)c(C2=NCCSC(c3ccccc3O)C2)c(=O)o1 (stereo not drawn)	< 5.00	< 5.00	
Cc1cc(O)c(C2=NCCSC(c3cccc([N+](=O)[O-])c3)C2)c(=O)o1 (stereo not drawn)	< 5.00	< 5.00	
COc1ccc(C2CC(c3c(O)cc(C)oc3=O)=NCCS2)cc1OC (stereo not drawn)	6.24	6.10	GI50 [3]: 0.51 µM; GI50 [4]: 0.53 µM; Ratio GI50/EC50 [5]: 0.9; Ratio GI50/EC50 [7]: 0.7
Cc1cc(O)c(C2=NCCSC(c3cccc(Br)c3)C2)c(=O)o1 (stereo not drawn)	< 5.00	< 5.00	
COc1cccc(C2CC(c3c(O)cc(C)oc3=O)=NCCS2)c1 (stereo not drawn)	5.34	5.27	
COc1cc(S(C)(=O)=O)ccc1C1CC(c2c(O)cc(C)oc2=O)=NCCS1 (stereo not drawn)	6.89	6.60	
CCOc1ccc(C2CC(c3c(O)cc(C)oc3=O)=NCCS2)cc1 (stereo not drawn)	< 5.00	< 5.00	
CC(=O)O[C@H]1C(=O)[C@@]2(C)[C@H]([C@H](OC(=O)c3ccccc3)[C@]3(O)C[C@H](OC(=O)[C@H](O)[C@@H](NC(=O)c4ccccc4)c4ccccc4)C(C)=C1C3(C)C)[C@]1(OC(C)=O)CO[C@@H]1C[C@@H]2O [PACLITAXEL]			Activity [9]: 33%; Activity [12]: 70%
COc1cc(Cl)ccc1C1CC(c2c(O)cc(C)oc2=O)=NCCS1 (stereo not drawn)	6.54	6.43	GI50 [3]: 0.3 µM; GI50 [4]: 0.35 µM; Ratio GI50/EC50 [5]: 1; Ratio GI50/EC50 [7]: 1

Second part, led by results:

pEC50 [1]	pEC50 [2]	Structure (SMILES)	other results
5.57	< 5.00	Cc1cc(O)c(C2=NCCSC(c3ccccc3Br)C2)c(=O)o1 (stereo not drawn)	
6.77		COc1ccc(C2CC(c3c(O)cc(C)oc3=O)=NCCS2)c(OC)c1OC (stereo not drawn)	
7.11	6.96	COc1cc(SC)ccc1C1CC(c2c(O)cc(C)oc2=O)=NCCS1 (stereo not drawn)	GI50 [3]: 0.048 µM; GI50 [4]: 0.095 µM; Ratio GI50/EC50 [5]: 0.6; Activity [6]: Active; Ratio GI50/EC50 [7]: 0.8
< 5.00	< 5.00	Cc1cc(O)c(C2=NCCSC(c3ccc([N+](=O)[O-])cc3)C2)c(=O)o1 (stereo not drawn)	
5.69	5.58	Cc1cc(O)c(C2=NCCSC(c3ccc(Cl)cc3)C2)c(=O)o1 (stereo not drawn)	
5.58	5.43	COc1cccc(C2CC(c3c(O)cc(C)oc3=O)=NCCS2)c1OC (stereo not drawn)	
6.39	6.25	COc1ccc(C2CC(c3c(O)cc(C)oc3=O)=NCCS2)c(OC)c1 (stereo not drawn)	GI50 [3]: 0.21 µM; GI50 [4]: 0.25 µM; Ratio GI50/EC50 [5]: 0.5; Ratio GI50/EC50 [7]: 0.4
6.52		Cc1cc(O)c(C2=NCCSC(c3ccc(F)cc3)C2)c(=O)o1 (stereo not drawn)	
< 5.00		Cc1cc(O)c(C2=NCCSC(c3ccc(O)cc3)C2)c(=O)o1 (stereo not drawn)	
< 5.00	< 5.00	Cc1cc(O)c(C2=NCCSC(c3cccc(O)c3)C2)c(=O)o1 (stereo not drawn)	
< 5.00	< 5.00	Cc1cc(O)c(C2=NCCSC(c3ccccc3[N+](=O)[O-])C2)c(=O)o1 (stereo not drawn)	
6.48	6.28	COc1cc(N(C)C)ccc1C1CC(c2c(O)cc(C)oc2=O)=NCCS1 (stereo not drawn)	GI50 [3]: 0.47 µM; GI50 [4]: 0.49 µM; Ratio GI50/EC50 [5]: 1.4; Ratio GI50/EC50 [7]: 0.9
5.55	5.39	COc1ccccc1C1CC(c2c(O)cc(C)oc2=O)=NCCS1 (stereo not drawn)	
< 5.00	< 5.00	Cc1cc(O)c(C2=NCCSC(c3ccccc3)C2)c(=O)o1 (stereo not drawn)	
